This is an account of results in PMC8537386, “The Specificity and Broad Multitarget Properties of Ligands for the Free Fatty Acid Receptors FFA3/GPR41 and FFA2/GPR43 and the Related Hydroxycarboxylic Acid Receptor HCA2/GPR109A” (Pharmaceuticals, 2021).

The target of one assay is T1, FFA3/GPR41 (Homo sapiens, UniProt O14843).
T1 construct: host or cells: Flp-In-293
T1 sequence (O14843 1-346): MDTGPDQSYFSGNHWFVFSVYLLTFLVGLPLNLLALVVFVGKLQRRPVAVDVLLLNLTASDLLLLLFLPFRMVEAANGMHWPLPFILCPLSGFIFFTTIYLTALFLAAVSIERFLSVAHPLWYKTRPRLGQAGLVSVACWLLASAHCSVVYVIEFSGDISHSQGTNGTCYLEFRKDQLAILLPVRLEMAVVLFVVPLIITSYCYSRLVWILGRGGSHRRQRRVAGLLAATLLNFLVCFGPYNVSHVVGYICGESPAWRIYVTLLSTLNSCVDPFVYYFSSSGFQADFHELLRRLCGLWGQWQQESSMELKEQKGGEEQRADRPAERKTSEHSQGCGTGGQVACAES
Further details: method as in PMID 32141297. The note with it: described in the literature; cited from earlier work.

The test system of another assay is FFA3/GPR41 mRNA. Kind of assay: FFA3/GPR41 gene expression in LPS-stimulated THP-1 macrophages (qRT-PCR). The format is cell-based, human. The conditions noted are these: niacin 50 µM; 4 h LPS 1 µg/mL. How it is done: (§1) The human THP-1 monocyte cell line was obtained from ATCC (American Type Culture Collection). […] The THP-1 monocytes were stimulated to differentiate into macrophages with phorbol 12-myristate 13-acetate (PMA) (50 ng/mL) for 24 h. The medium was exchanged for PMA-free medium for 48 h before the cells were used for experiments.
(§2) The total RNA was isolated from THP-1 cells using TRIzol reagent, according to the manufacturer’s protocol. First-strand cDNA was synthesized from 2 µg of RNA using oligo(dT) primers with RevertAid H Minus kit (Thermo Fisher Scientific, USA). The qRT-PCR procedure was performed using ABsolute Blue QPCR SYBR Green Master Mix reagent (Thermo Fisher Scientific, USA) with a ViiA7 real-time PCR detection system (Applied Biosystems, USA). The primer pairs that were employed for HCA2/GPR109A were forward 5′-[…]-3′ and reverse 5′-[…]-3′; for FFA2/GPR43 were forward 5′-[…]-3′ and reverse 5′-[…]-3′; for FFA3/GPR41 were forward 5′-[…]-3′ and reverse 5′-[…]-3′; for IL-6 were forward 5′-[…]-3′ and reverse 5′-[…]-3′; for MCP-1 were forward 5′-[…]-3′ and reverse 5′-[…]-3′; for TNF-α were forward 5′-[…]-3′ and reverse 5′-[…]-3′; for RPS29 were forward 5′-[…]-3′ and reverse 5′- […]-3′. The mRNA levels were quantified and normalized to the levels of the reference gene RPS29 using the 2^−ΔΔCt method and presented as relative expression compared to the values for untreated cells.
(In general: In qPCR the cycle at which signal appears reflects the starting amount.)

A further assay deals with FFA2/GPR43 mRNA. The assay can be described thus: FFA2/GPR43 gene expression in LPS-stimulated THP-1 macrophages (qRT-PCR). It counts as cell-based, human. The conditions noted are these: niacin 50 µM; 4 h LPS 1 µg/mL. How it is done: as §1, §2
The next assay concerns TNF-α mRNA. Kind of assay: LPS-induced TNF-α gene expression in THP-1 macrophages (qRT-PCR). The format is cell-based, human. The conditions noted are these: niacin 50 µM; 4 h LPS; LPS-treated cells = 100%. How it is done: as §1, §2
The next assay has as its system MCP-1 mRNA. Kind of assay: LPS-induced MCP-1 gene expression in THP-1 macrophages (qRT-PCR). The note with it: niacin 50 µM; 4 h LPS; LPS-treated cells = 100%. It counts as cell-based, human. As to the method: as §1, §2

For “4-i-butylhexahydroquinoline methyl ester [compound 28]”, at FFA3/GPR41, the “activity in the cAMP assay (in words)” value was “no activity”.

For `O=C(O)c1cccnc1` [niacin, reference compound], the “LPS-stimulated FFA3/GPR41 gene expression” value in the assay on FFA3/GPR41 mRNA was “did not affect”. Further, the “LPS-stimulated FFA2/GPR43 gene expression” value in the assay with FFA2/GPR43 mRNA is given as “did not affect”. Besides, the “downregulation of LPS-induced TNF-α mRNA” value in the assay with TNF-α mRNA stood at 32 ± 3%. Further, the “downregulation of LPS-induced MCP-1 mRNA” value in the assay on MCP-1 mRNA is on record as 29 ± 1%.
